According to patent US20100298141A1, “SUBSTITUTED PYRIDINE N-OXIDE HERBICIDES” (E. I. DU PONT DE NEMOURS AND COMPANY, priority 2007, published 2010):

What was measured:
common mallow = experiment: Test F preemergence test; type: in vivo, Malva sylvestris; settings: scale 0 to 100
From the text: (§1) Seeds of plant species selected from bermudagrass (Cynodon dactylon), Surinam grass (Brachiaria decumbens), large crabgrass (Digitaria sanguinalis), green foxtail (Setaria viridis), goosegrass (Eleusine indica), johnsongrass (Sorghum halepense), kochia (Kochia scoparia), pitted morningglory (Ipomoea lacunosa), purple nutsedge (Cyperus rotundus), common ragweed (Ambrosia elation), mustard (Brassica nigra), guineagrass (Panicum maximum), […] (Paspalum dilatatum), barnyardgrass (Echinochloa crus-galli), southern sandbur (Cenchrus echinatus), common sowthistle (Sonchus oleraceous), prickly […] spinosa), Italian ryegrass (Lolium multiflorum), common purslane (Portulaca oleracea), broadleaf signalgrass (Brachiaria platyphylla), common groundsel (Senecio vulgaris), common chickweed (Stellaria media), Virginia dayflower (Commelina virginica), annual bluegrass (Poa annua), naked crabgrass (Digitaria nuda), […] cochinchinensis), quackgrass (Elytrigia repens), Canada horseweed (Conyza canadensis), field bindweed (Convolvulus arvensis), […] (Bidens bipinnata), common mallow (Malva sylvestris), Russian thistle (Salsola kali), and sugarcane (Saccharum officinarum) were planted and treated preemergence with test chemicals formulated in a non-phytotoxic solvent mixture which included a surfactant. At a different time, sugarcane was treated with postemergence applications of some of the test chemicals formulated in the same manner. Plants were approximately 3- to 4-leaf stage for the postemergence treatments. Treated plants and controls were maintained in a greenhouse for 14 to 21 days, after which time all species were compared to controls and visually evaluated. […] A dash (-) response means no test result.

dallisgrass = experiment: Test F preemergence test; type: in vivo, Paspalum dilatatum; settings: scale 0 to 100
From the text: as §1

crabgrass = experiment: Test C pre-/postemergence test; type: in vivo, Digitaria sanguinalis
Procedure, shortened: (§2)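 Compounds in a non-phytotoxic solvent with surfactant applied preemergence to seeded pots and, at the same time, postemergence to plants 2–18 cm tall (1- to 4-leaf stage). Paddy tests: pots flooded to 3 cm, compound applied into the water, depth held throughout.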

umbrella sedge = experiment: Test C flooded paddy test; type: in vivo, Cyperus difformis; settings: Flood
Procedure, shortened: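 Test compounds are applied straight into paddy water held 3 cm above the soil surface, with that flood maintained for the whole test. After 13 to 15 days in the greenhouse, each species is scored visually relative to controls.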

kochia = experiment: Test F preemergence test; type: in vivo, Kochia scoparia; settings: scale 0 to 100
From the text: as §1

wheat = experiment: Test A pre-/postemergence greenhouse test; type: in vivo, Triticum aestivum; settings: for Wheat plant response rating: 0 to 100 scale
Procedure, shortened: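 Test compounds in non-phytotoxic solvent with surfactant were applied as a preemergence soil spray to seeded loam/sand pots and, concurrently, postemergence to plants at 2–10 cm, one- to two-leaf stage. About ten days in greenhouse, then injury visually rated against untreated controls.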

annual bluegrass = experiment: Test F preemergence test; type: in vivo, Poa annua; settings: scale 0 to 100
From the text: as §1

quackgrass = experiment: Test F preemergence test; type: in vivo, Elytrigia repens; settings: scale 0 to 100
From the text: as §1

mustard = experiment: Test F preemergence test; type: in vivo, Brassica nigra; settings: scale 0 to 100
From the text: as §1

green foxtail = experiment: Test F preemergence test; type: in vivo, Setaria viridis; settings: scale 0 to 100
From the text: as §1

Goosegrass = experiment: Test C pre-/postemergence test; type: in vivo, Eleusin indica
Procedure, shortened: as §2

[1] = 62 g ai/ha, Preemergence, scale 0 to 100
[2] = 125 g ai/ha, preemergence, scale 0 (no effect) to 100 (complete control)
[3] = Preemergence, 31 g ai/ha, scale 0 to 100 (0 no effect, 100 complete control)
[4] = preemergence, 250 g ai/ha, scale 0 (no effect) to 100 (complete control)

Cc1cc[n+]([O-])c(S(=O)(=O)C(Cl)c2c(C(F)(F)F)nn(C)c2OCC(F)(F)F)c1 (racemic) [Compound 37]
Plant response rating, Mallow (common mallow; 16 g ai/ha, preemergence): 0 | Mallow plant response rating (common mallow; 62 g ai/ha, Preemergence): 0 | Mallow plant response rating (common mallow; 125 g ai/ha, preemergence): 90 | Plant response rating, Mallow (common mallow; Preemergence, 31 g ai/ha): 0 | Plant response rating, Dallisgrass (dallisgrass; 16 g ai/ha, preemergence): 0 | Dallisgrass plant response rating (dallisgrass; 62 g ai/ha, Preemergence): 75 | Dallisgrass plant response rating (dallisgrass; 125 g ai/ha, preemergence): 100 | Plant response rating, Dallisgrass (dallisgrass; Preemergence, 31 g ai/ha): 25 | Crabgrass, Large plant response rating (crabgrass; [1]): 80 | Crabgrass, Large plant response rating (crabgrass; [2]): 100 | Plant response rating, Crabgrass, Large (crabgrass; [3]): 55 | Crabgrass, Large plant response rating (crabgrass; [4]): 100 | Plant response rating, Sedge, Umbrella (umbrella sedge; 31 g ai/ha, scale 0 to 100 (0 no effect, 100 complete control)): 60 | Plant response rating, Sedge, Umbrella (umbrella sedge; 62 g ai/ha, scale 0 to 100, 0 no effect, 100 complete control, 13 to 15 days): 85 | Plant response rating, Sedge, Umbrella (umbrella sedge; 125 g ai/ha, scale 0 to 100, 0 no effect, 100 complete control, 13 to 15 days): 95 | Plant response rating, Sedge, Umbrella (umbrella sedge; 250 g ai/ha, scale 0 to 100, 0 no effect, 100 complete control, 13 to 15 days): 95 | Plant response rating, Kochia (kochia; 16 g ai/ha, preemergence): 0 | Kochia plant response rating (kochia; 62 g ai/ha, Preemergence): 0 | Kochia plant response rating (kochia; 125 g ai/ha, preemergence): 0 | Plant response rating, Kochia (kochia; Preemergence, 31 g ai/ha): 0 | Wheat plant response rating (wheat; Postemergence, 125 g ai/ha, 0 is no effect, 100 is complete control): 0 | Wheat plant response rating (wheat; Postemergence, 500 g ai/ha, 0 is no effect, 100 is complete control): 50 | Wheat plant response rating (wheat; Preemergence, 125 g ai/ha, 0 no effect, 100 complete control): 20 | Plant response rating, Wheat (wheat; Preemergence, 500 g ai/ha, 0 to 100 scale where 0 is no effect and 100 is complete control): 50 | Plant response rating, Bluegrass (annual bluegrass; 16 g ai/ha, preemergence): 0 | Bluegrass plant response rating (annual bluegrass; 62 g ai/ha, Preemergence): 60 | Bluegrass plant response rating (annual bluegrass; 125 g ai/ha, preemergence): 80 | Plant response rating, Bluegrass (annual bluegrass; Preemergence, 31 g ai/ha): 10 | Plant response rating, Quackgrass (quackgrass; 16 g ai/ha, preemergence): 0 | Quackgrass plant response rating (quackgrass; 62 g ai/ha, Preemergence): 25 | Quackgrass plant response rating (quackgrass; 125 g ai/ha, preemergence): 70 | Plant response rating, Quackgrass (quackgrass; Preemergence, 31 g ai/ha): 25 | Plant response rating, Black Mustard (mustard; 16 g ai/ha, preemergence): 0 | Black Mustard plant response rating (mustard; 62 g ai/ha, Preemergence): 50 | Black Mustard plant response rating (mustard; 125 g ai/ha, preemergence): 100 | Plant response rating, Black Mustard (mustard; Preemergence, 31 g ai/ha): 15 | Plant response rating, Foxtail, Green (green foxtail; 16 g ai/ha, preemergence): 0 | Foxtail, Green plant response rating (green foxtail; 62 g ai/ha, Preemergence): 15 | Foxtail, Green plant response rating (green foxtail; 125 g ai/ha, preemergence): 90 | Plant response rating, Foxtail, Green (green foxtail; Preemergence, 31 g ai/ha): 10 | Goosegrass plant response rating (Goosegrass; [1]): 100 | Goosegrass plant response rating (Goosegrass; [2]): 100 | Plant response rating, Goosegrass (Goosegrass; [3]): 85 | Goosegrass plant response rating (Goosegrass; [4]): 100
